Earlier results in patent EP0879035B1, “BISMUTH-CONTAINING COMPOSITIONS IN TOPICAL DOSAGE FORMS” (Josman Laboratories, Inc., priority 1995, dated 1997).
Read-outs that look alike come from different tables or passages of the source.

How the values were obtained:
[1] = system: H. Pylori; details: against H. Pylori
[2] = dogs treated for six months; 160, 320, and 640 mg/kg body weight
[3] = in vivo
[4] = rats treated for three months; 160, 320, and 640 mg/kg body weight

In the case of “1,2,3-PROPANETRICARBONIC ACID, 2-HYDROXY, BISMUTH(3T)POTASSIUM [CBS]”, the “minimum inhibitory concentration (MIC), range” value [1] is given as 4 to 32 mg/L, the “toxicity on chronic daily administration” value [2] is given as “No toxicity” and the “steady-state blood levels unlikely to cause any neurotoxicity” value [3] is given as 50-100. The “systemic bioavailability of bismuth” value ([3]; po) was 0.16-0.28 % of the administered dose and the “toxicity on chronic daily administration” value [4] was “No toxicity”.
